Test results reported in patent publication US9745291B2, “PRMT5 inhibitors containing a dihydro- or tetrahydroisoquinoline and uses thereof” (Epizyme, Inc., priority 2012, dated 2017).

What was measured:
PRMT5/MEP50 = PRMT5/MEP50 (Homo sapiens (Human), UniProt O14744); test: PRMT5 Biochemical Assay (PRMT5/MEP50 enzyme assay on peptide substrate, 3H-SAM Flashplate); settings: PRMT5 biochemical assay; read-out: Biochemical IC50
[1] = tested on: symmetric di-methyl arginine in Z-138 cells; test: Z-138 Methylation Assay (In Cell Western for symmetric di-methyl arginine and DNA content); assay type: cell-based; settings: Homo sapiens, Z-138, Z-138 cells, read-out: ICW EC50
From the text: [formula] Where top and bottom are the normally allowed to float, but may be fixed at 100 or 0 respectively in a 3-parameter fit. The Hill Coefficient normally allowed to float but may also be fixed at 1 in a 3-parameter fit. Y is the % inhibition and X is the compound concentration. Z-138 Methylation Assay
Z-138 suspension cells were purchased from ATCC (American Type Culture Collection, Manassas, Va.). RPMI/Glutamax medium, penicillin-streptomycin, heat inactivated fetal bovine serum, and D-PBS were purchased from Life Technologies, Grand Island, N.Y., USA. Odyssey blocking buffer, 800CW goat anti-rabbit IgG (H+L) antibody, and Licor Odyssey infrared scanner were purchased from Licor Biosciences, Lincoln, Nebr., USA. Symmetric di-methyl arginine antibody was purchased from EMD Millipore, Billerica, Mass., USA. 16% Paraformaldehyde was purchased from Electron Microscopy Sciences, Hatfield, Pa., USA.
Z-138 suspension cells were maintained in growth medium (RPMI 1640 supplemented with 10% v/v heat inactivated fetal bovine serum and 100 units/mL penicillin-streptomycin) and cultured at 37° C. under 5% CO2.
Cell Treatment, in Cell Western (ICW) for Detection of Symmetric Di-Methyl Arginine and DNA Content.
Z-138 cells were seeded in assay medium at a concentration of 50,000 cells per mL to a 384-well cell culture plate with 50 μL per well. Compound (100 nL) from 384 well source plates was added directly to 384 well cell plate. Plates were incubated at 37° C., 5% CO2 for 96 hours. After four days of incubation, 40 μL of cells from incubated plates were added to poly-D-lysine coated 384 well culture plates (BD Biosciences 356697). Plates were incubated at room temperature for 30 minutes then incubated at 37° C., 5% CO2 for 5 hours. After the incubation, 40 μL per well of 8% paraformaldehyde in PBS (16% paraformaldahyde was diluted to 8% in PBS) was added to each plate and incubated for 30 minutes. Plates were transferred to a Biotek 405 plate washer and washed 5 times with 100 μL per well of wash buffer (1×PBS with 0.1% Triton X-100 (v/v)). Next 30 μL per well of Odyssey blocking buffer were added to each plate and incubated 1 hour at room temperature. Blocking buffer was removed and 20 μL per well of primary antibody was added (symmetric di-methyl arginine diluted 1:100 in Odyssey buffer with 0.1% Tween 20 (v/v)) and plates were incubated overnight (16 hours) at 4° C. Plates were washed 5 times with 100 μL per well of wash buffer. Next 20 μL per well of secondary antibody was added (1:200 800CW goat anti-rabbit IgG (H+L) antibody, 1:1000 DRAQ5 (Biostatus limited) in Odyssey buffer with 0.1% Tween 20 (v/v)) and incubated for 1 hour at room temperature. The plates were washed 5 times with 100 μL per well wash buffer then 1 time with 100 μL per well of water. Plates were allowed to dry at room temperature then imaged on the Licor Odyssey machine which measures integrated intensity at 700 nm and 800 nm wavelengths. Both 700 and 800 channels were scanned.
First, the ratio for each well was determined by:
Each plate included fourteen control wells of DMSO only treatment (minimum inhibition) as well as fourteen control wells for maximum inhibition treated with 3 μM of a reference compound (Background wells). The average of the ratio values for each control type was calculated and used to determine the percent inhibition for each test well in the plate. Reference compound was serially diluted three-fold in DMSO for a total of nine test concentrations, beginning at 3 μM. Percent inhibition was determined and IC50 curves were generated using triplicate wells per concentration of compound. […]

Z-138 cell line = test: Z-138 Proliferation Assay (Cell Titer Glo, 5 days); assay type: cell-based; settings: Homo sapiens, Z-138, 120 h, Z-138 cells
From the text: [formula] Z-138 Proliferation Assay
Z-138 suspension cells were purchased from ATCC (American Type Culture Collection, Manassas, Va.). RPMI/Glutamax medium, penicillin-streptomycin, heat inactivated fetal bovine serum were purchased from Life Technologies, Grand Island, N.Y., USA. V-bottom polypropylene 384-well plates were purchased from Greiner Bio-One, Monroe, N.C., USA. Cell culture 384-well white opaque plates were purchased from Perkin Elmer, Waltham, Mass., USA. Cell-Titer Glo® was purchased from Promega Corporation, Madison, Wis., USA. SpectraMax M5 plate reader was purchased from Molecular Devices LLC, Sunnyvale, Calif., USA.
Z-138 suspension cells were maintained in growth medium (RPMI 1640 supplemented with 10% v/v heat inactivated fetal bovine serum and cultured at 37° C. under 5% CO2 Under assay conditions, cells were incubated in assay medium (RPMI 1640 supplemented with 10% v/v heat inactivated fetal bovine serum and 100 units/mL penicillin-streptomycin) at 37° C. under 5% CO2.
For the assessment of the effect of compounds on the proliferation of the Z-138 cell line, exponentially growing cells were plated in 384-well white opaque plates at a density of 10,000 cells/ml in a final volume of 50 μl of assay medium. A compound source plate was prepared by performing triplicate nine-point 3-fold serial dilutions in DMSO, beginning at 10 mM (final top concentration of compound in the assay was 20 μM and the DMSO was 0.2%). A 100 nL aliquot from the compound stock plate was added to its respective well in the cell plate. […] After addition of compounds, assay plates were incubated for 5 days at 37° C., 5% CO2, relative humidity >90%.
Cell viability was measured by quantitation of ATP present in the cell cultures, adding 35 μl of Cell Titer Glo® reagent to the cell plates. Luminescence was read in the SpectraMax M5 microplate reader. The concentration of compound inhibiting cell viability by 50% was determined using a 4-parametric fit of the normalized dose response curves.

Sequence of PRMT5/MEP50 (O14744 other isoform, or with tags, fused parts or gaps): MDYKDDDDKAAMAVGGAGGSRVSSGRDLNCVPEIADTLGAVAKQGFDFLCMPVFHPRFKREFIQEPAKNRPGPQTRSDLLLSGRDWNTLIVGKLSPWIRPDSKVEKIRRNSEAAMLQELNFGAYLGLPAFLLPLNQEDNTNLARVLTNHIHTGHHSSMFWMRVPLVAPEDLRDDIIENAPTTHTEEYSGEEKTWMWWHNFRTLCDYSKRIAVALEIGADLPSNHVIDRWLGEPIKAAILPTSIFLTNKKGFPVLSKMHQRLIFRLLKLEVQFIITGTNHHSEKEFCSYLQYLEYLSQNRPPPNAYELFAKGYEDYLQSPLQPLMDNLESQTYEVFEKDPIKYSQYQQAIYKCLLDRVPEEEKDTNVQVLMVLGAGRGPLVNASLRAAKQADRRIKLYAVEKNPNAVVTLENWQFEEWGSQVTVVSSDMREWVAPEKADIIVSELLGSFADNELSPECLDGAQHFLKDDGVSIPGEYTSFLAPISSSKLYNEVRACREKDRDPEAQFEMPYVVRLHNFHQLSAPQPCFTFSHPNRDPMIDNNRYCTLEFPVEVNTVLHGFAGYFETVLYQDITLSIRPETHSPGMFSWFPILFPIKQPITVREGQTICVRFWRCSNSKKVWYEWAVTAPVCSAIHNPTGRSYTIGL
Sequence of PRMT5/MEP50 (Q9BQA1 other isoform, or with tags, fused parts or gaps partner): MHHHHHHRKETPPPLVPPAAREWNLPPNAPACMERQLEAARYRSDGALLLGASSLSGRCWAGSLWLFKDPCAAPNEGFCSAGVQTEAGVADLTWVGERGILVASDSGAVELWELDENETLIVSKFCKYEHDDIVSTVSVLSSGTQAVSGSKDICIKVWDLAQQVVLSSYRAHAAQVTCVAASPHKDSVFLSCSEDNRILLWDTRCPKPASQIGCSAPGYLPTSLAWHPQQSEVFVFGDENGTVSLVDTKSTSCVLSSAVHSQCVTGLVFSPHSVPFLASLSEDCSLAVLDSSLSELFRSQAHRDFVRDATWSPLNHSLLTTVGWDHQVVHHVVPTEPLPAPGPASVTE

| SMILES | IC50 (PRMT5/MEP50) | EC50 [1] | EC50 (Z-138 cell line) |
| --- | --- | --- | --- |
| CC(=O)Nc1cccc(OCC(=O)NC[C@@H](O)CN2CCc3ccccc3C2)c1C1CCCNC1 (some centres unmarked) [Compound 199] | 1000 to 10000 nM | > 1000 nM | > 20000 nM |
| CC(Oc1ccccc1[C@H]1CCCNC1)C(=O)NC[C@@H](O)CN1CCc2ccccc2C1 (some centres unmarked) [Compound 205] | 1000 to 10000 nM | > 1000 nM | 10000 to 50000 nM |
| Cn1cncc1-c1cccc(OCC(=O)NC[C@@H](O)CN2CCc3ccccc3C2)c1 [Compound 255] | 101 to 1000 nM | 101 to 1000 nM | > 20000 nM |
| CN1CCCC(c2c(CS(C)(=O)=O)cccc2OCC(=O)NC[C@@H](O)CN2CCc3ccccc3C2)C1 (some centres unmarked) [Compound 247] | 101 to 1000 nM | > 1000 nM | > 20000 nM |
| Cc1ccc2[nH]c(CCC(=O)NC[C@H](O)CN3CCc4ccccc4C3)nc2c1 [Compound 224] | < 100 nM | < 100 nM | 1000 to 10000 nM |
| O=C(COc1cccc(-n2ccnc2)c1)NC[C@@H](O)CN1CCc2ccccc2C1 [Compound 194] | 101 to 1000 nM | > 1000 nM | > 20000 nM |
| O=C(CCc1nc2ccccc2o1)NC[C@@H](O)CN1CCc2ccccc2C1 [Compound 200] | 1000 to 10000 nM | > 1000 nM | > 20000 nM |
| Cn1cncc1CCNC(=O)c1cccc(OCC(=O)NC[C@@H](O)CN2CCc3ccccc3C2)c1 [Compound 231] | 101 to 1000 nM | > 1000 nM | > 20000 nM |
| CN(C)S(=O)(=O)c1c(OCC(=O)NC[C@@H](O)CN2CCc3ccccc3C2)cccc1N1CCNCC1 [Compound 252] | – | < 100 nM | < 100 nM |
| NC1CN(S(=O)(=O)c2ccccc2OCC(=O)NC[C@@H](O)CN2CCc3ccccc3C2)CC1O (some centres unmarked) [Compound 215] | < 100 nM | > 1000 nM | > 20000 nM |
| CN(C[C@H](O)CN1CCc2ccccc2C1)C(=O)CCc1nc2ccccc2[nH]1 [Compound 228] | < 100 nM | < 100 nM | 101 to 1000 nM |
| CN(CC1CNC1)S(=O)(=O)c1ccccc1OCC(=O)NC[C@@H](O)CN1CCc2ccccc2C1 [Compound 232] | < 100 nM | < 100 nM | 1000 to 10000 nM |
| O=C(COc1cccc(-c2c[nH]cn2)c1)NC[C@@H](O)CN1CCc2ccccc2C1 [Compound 195] | 1000 to 10000 nM | > 1000 nM | > 20000 nM |
| O=C(CNc1nc2ccccc2[nH]1)NC[C@H](O)CN1CCc2ccccc2C1 [Compound 239] | < 100 nM | < 100 nM | 1000 to 10000 nM |
| CN1CCCCC1c1ccccc1OCC(=O)NCC(O)CN1CCc2ccccc2C1 (centres unmarked) [Compound 258] | 101 to 1000 nM | 101 to 1000 nM | 1000 to 10000 nM |
| Cn1cc(-c2ccccc2)nc1CCC(=O)NC[C@H](O)CN1CCc2ccccc2C1 [Compound 256] | 101 to 1000 nM | 101 to 1000 nM | > 20000 nM |
| CN(C)C1CN(S(=O)(=O)c2ccccc2OCC(=O)NC[C@@H](O)CN2CCc3ccccc3C2)CC1O (some centres unmarked) [Compound 216] | 101 to 1000 nM | 101 to 1000 nM | > 20000 nM |
| O=C(CCc1nc2cc(F)ccc2[nH]1)NC[C@H](O)CN1CCc2ccccc2C1 [Compound 225] | < 100 nM | < 100 nM | 101 to 1000 nM |
| Cn1cnc(-c2cccc(OCC(=O)NC[C@@H](O)CN3CCc4ccccc4C3)c2)c1 [Compound 234] | 101 to 1000 nM | > 1000 nM | > 20000 nM |
| CN1CCC(CN(C)S(=O)(=O)c2ccccc2OCC(=O)NC[C@@H](O)CN2CCc3ccccc3C2)C1 (some centres unmarked) [Compound 238] | < 100 nM | < 100 nM | 101 to 1000 nM |
| O=C(COc1cccc2cccnc12)NC[C@H](O)CN1CCc2ccccc2C1 [Compound 44, (S)—N-(3-(3,4-dihydroisoquinolin-2(1H)-yl)-2-hydroxypropyl)-2-(quinolin-8-yloxy)acetamide] | – | 101 to 1000 nM | – |
| O=C(COc1ccccc1C1CCCNC1)NCC(O)CN1CCc2ccccc2C1 (centres unmarked) [Compound 117] | – | 101 to 1000 nM | 1000 to 10000 nM |
